Where “and” joins values, the source holds several entries; their conditions need not be identical. Equal values may be shown once. Toxic doses and inconclusive results are not listed. Rule as the data show it: active = T/C of 150% or more; inactive = T/C below 125%.
Tested on: L1210 leukemia ip in BDF1 mice, survival T/C
Test: NCI In Vivo Anticancer Drug Screen. Data for tumor model L1210 Leukemia (intraperitoneal) in B6D2F1 (BDF1) mice
Conditions: endpoint: mean survival time, higher = longer survival
Procedure, shortened: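 Antitumor effect is assessed in tumor-bearing animals. Survival in the compound arm is compared with a vehicle-dosed control arm and expressed as their quotient.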

[1] = dose: 50.0 mg/kg/injection, schedule: Q04DX003 (ip), vehicle: saline
[2] = dose: 100.0 mg/kg/injection, schedule: Q01DX001 (ip), vehicle: Klucel (hydroxypropylcellulose) (HPC)
[3] = dose: 200.0 mg/kg/injection, schedule: Q01DX001 (ip), vehicle: Klucel (hydroxypropylcellulose) (HPC)
[4] = dose: 400.0 mg/kg/injection, schedule: Q01DX001 (ip), vehicle: Klucel (hydroxypropylcellulose) (HPC)
[5] = dose: 100.0 mg/kg/injection, schedule: Q04DX002 (ip), vehicle: Klucel (hydroxypropylcellulose) (HPC)
[6] = dose: 200.0 mg/kg/injection, schedule: Q04DX002 (ip), vehicle: Klucel (hydroxypropylcellulose) (HPC)
[7] = dose: 400.0 mg/kg/injection, schedule: Q04DX002 (ip), vehicle: Klucel (hydroxypropylcellulose) (HPC)
[8] = dose: 100.0 mg/kg/injection, schedule: Q01DX009 (ip), vehicle: Klucel (hydroxypropylcellulose) (HPC)
[9] = dose: 100.0 mg/kg/injection, schedule: Q04DX003 (ip), vehicle: Klucel (hydroxypropylcellulose) (HPC)
[10] = dose: 200.0 mg/kg/injection, schedule: Q01DX009 (ip), vehicle: Klucel (hydroxypropylcellulose) (HPC)
[11] = dose: 200.0 mg/kg/injection, schedule: Q04DX003 (ip), vehicle: Klucel (hydroxypropylcellulose) (HPC)
[12] = dose: 400.0 mg/kg/injection, schedule: Q01DX009 (ip), vehicle: Klucel (hydroxypropylcellulose) (HPC)
[13] = dose: 400.0 mg/kg/injection, schedule: Q04DX003 (ip), vehicle: Klucel (hydroxypropylcellulose) (HPC)

Measured: T/C

CN(C)CC/C=C1\c2ccccc2Sc2ccc(C(F)(F)F)cc21
inactive: dose: 0.78 mg/kg/injection, schedule: Q01DX009 (ip), vehicle: saline 97 % of control | dose: 0.78 mg/kg/injection, schedule: Q04DX003 (ip), vehicle: saline 102 % of control | dose: 1.56 mg/kg/injection, schedule: Q01DX009 (ip), vehicle: saline 105 % of control | dose: 1.56 mg/kg/injection, schedule: Q04DX003 (ip), vehicle: saline 105 % of control | dose: 3.12 mg/kg/injection, schedule: Q01DX009 (ip), vehicle: saline 115 % of control | dose: 3.12 mg/kg/injection, schedule: Q04DX003 (ip), vehicle: saline 100 % of control | dose: 6.0 mg/kg/injection, schedule: Q01DX Z (ip), vehicle: carboxymethylcellulose (CMC) 111 % of control | dose: 6.25 mg/kg/injection, schedule: Q04DX003 (ip), vehicle: saline 107 % of control | dose: 9.0 mg/kg/injection, schedule: Q01DX Z (ip), vehicle: carboxymethylcellulose (CMC) 103 % of control and 108 % of control | dose: 9.0 mg/kg/injection, schedule: Q01DX Z (ip), vehicle: other 110 % of control | dose: 12.5 mg/kg/injection, schedule: Q01DX009 (ip), vehicle: saline 122 % of control | dose: 12.5 mg/kg/injection, schedule: Q04DX003 (ip), vehicle: saline 105 % of control | dose: 14.0 mg/kg/injection, schedule: Q01DX Z (ip), vehicle: carboxymethylcellulose (CMC) 100 % of control and 111 % of control | dose: 17.5 mg/kg/injection, schedule: Q01DX001 (ip), vehicle: saline 114 % of control | dose: 21.0 mg/kg/injection, schedule: Q01DX Z (ip), vehicle: carboxymethylcellulose (CMC) 103 % of control | dose: 21.0 mg/kg/injection, schedule: Q01DX Z (ip), vehicle: other 110 % of control | dose: 31.0 mg/kg/injection, schedule: Q01DX Z (ip), vehicle: carboxymethylcellulose (CMC) 110 % of control | dose: 35.0 mg/kg/injection, schedule: Q01DX001 (ip), vehicle: saline 104 % of control | [1] 120 % of control | dose: 70.0 mg/kg/injection, schedule: Q01DX001 (ip), vehicle: saline 108 % of control | dose: 140.0 mg/kg/injection, schedule: Q01DX001 (ip), vehicle: saline 123 % of control

COC(=O)c1cccc(Nc2ccccc2C(=O)O)c1
inactive: [2] 102 % of control | [3] 96 % of control | [4] 93 % of control

CN(Cc1cccc(Cl)c1)C(=O)Nc1ccccc1Cl
inactive: [5] 104 % of control | [6] 104 % of control | [7] 104 % of control

Oc1c(Cl)cc(Cl)c(Cl)c1CN1CCOCC1
inactive: dose: 55.0 mg/kg/injection, schedule: Q01DX Z (ip), vehicle: methylcellulose (MC) 98 % of control | dose: 83.0 mg/kg/injection, schedule: Q01DX Z (ip), vehicle: methylcellulose (MC) 116 % of control | dose: 125.0 mg/kg/injection, schedule: Q01DX Z (ip), vehicle: methylcellulose (MC) 104 % of control

Cc1ncc(C(O)c2ccccc2)n1Cc1ccccc1 (stereo unspecified)
inactive: [2] 94 % of control | [8] 93 % of control and 107 % of control | [9] 106 % of control | [3] 100 % of control | [10] 93 % of control and 103 % of control | [11] 97 % of control | [4] 98 % of control | [12] 104 % of control and 89 % of control | [13] 99 % of control

O=[N+]([O-])c1cc(S(=O)(=O)c2ccc(Cl)c([N+](=O)[O-])c2)ccc1Cl
inactive: dose: 25.0 mg/kg/injection, schedule: Q01DX009 (ip), vehicle: Klucel (hydroxypropylcellulose) (HPC) 92 % of control | dose: 50.0 mg/kg/injection, schedule: Q01DX009 (ip), vehicle: Klucel (hydroxypropylcellulose) (HPC) 92 % of control | [8] 90 % of control | [10] 92 % of control | [12] 87 % of control

NC(N)=NS(=O)(=O)c1ccc(C(N)=NC2CCCCC2)cc1
inactive: dose: 100.0 mg/kg/injection, schedule: Q01DX001 (ip), vehicle: saline 96 % of control | dose: 200.0 mg/kg/injection, schedule: Q01DX001 (ip), vehicle: saline 96 % of control | dose: 400.0 mg/kg/injection, schedule: Q01DX001 (ip), vehicle: saline 90 % of control

Cc1c(NS(=O)(=O)c2ccccc2)c(C)c(NS(=O)(=O)c2ccccc2)c(C)c1NS(=O)(=O)c1ccccc1
inactive: dose: 50.0 mg/kg/injection, schedule: Q01DX009 (ip), vehicle: saline with Tween-80 96 % of control | dose: 100.0 mg/kg/injection, schedule: Q01DX009 (ip), vehicle: saline with Tween-80 96 % of control | dose: 200.0 mg/kg/injection, schedule: Q01DX009 (ip), vehicle: saline with Tween-80 88 % of control

C[PH+](c1ccccc1)c1ccccc1.C[PH+](c1ccccc1)c1ccccc1.O=C([S-])[S-].[Pd+2]
inactive: [1] 100 % of control | dose: 100.0 mg/kg/injection, schedule: Q04DX003 (ip), vehicle: saline 100 % of control | dose: 200.0 mg/kg/injection, schedule: Q04DX003 (ip), vehicle: saline 94 % of control

CC1CN1C(=O)Nc1ccc(Cl)cc1 (stereo unspecified)
inactive: dose: 25.0 mg/kg/injection, schedule: Q04DX002 (ip), vehicle: other 116 % of control | dose: 50.0 mg/kg/injection, schedule: Q04DX002 (ip), vehicle: other 100 % of control | dose: 100.0 mg/kg/injection, schedule: Q04DX002 (ip), vehicle: other 97 % of control and 91 % of control

O=c1c2ccccc2c2c3c1cccc3c1cccc3c(=O)c4ccccc4c2c31
inactive: dose: 100.0 mg/kg/injection, schedule: Q04DX003 (ip), vehicle: saline with Tween-80 98 % of control | dose: 200.0 mg/kg/injection, schedule: Q04DX003 (ip), vehicle: saline with Tween-80 101 % of control | dose: 400.0 mg/kg/injection, schedule: Q04DX003 (ip), vehicle: saline with Tween-80 104 % of control

O=C1OCCN1/N=C/c1ccc([N+](=O)[O-])o1
inactive: [8] 107 % of control | [9] 105 % of control | [10] 110 % of control | [11] 105 % of control | [12] 97 % of control | [13] 106 % of control

CC(=O)OCC1OC(n2cnc(C(N)=O)c2N)C(OC(C)=O)C1OC(C)=O (stereo unspecified)
inactive: dose: 100.0 mg/kg/injection, schedule: Q01DX005 (ip), vehicle: saline 95 % of control | dose: 200.0 mg/kg/injection, schedule: Q01DX005 (ip), vehicle: saline 96 % of control

COc1cc(Cc2cc(OC)c(O)c(OC)c2)cc(OC)c1O
inactive: [8] 107 % of control | [9] 92 % of control | [10] 93 % of control | [11] 97 % of control | [12] 101 % of control | [13] 95 % of control

Cc1cc(N(CCOS(C)(=O)=O)CCOS(C)(=O)=O)ccc1C=Nc1cccc(C(=O)O)c1
inactive: dose: 2.5 mg/kg/injection, schedule: Q04DX003 (ip), vehicle: Klucel (hydroxypropylcellulose) (HPC) 111 % of control | dose: 5.0 mg/kg/injection, schedule: Q04DX003 (ip), vehicle: Klucel (hydroxypropylcellulose) (HPC) 113 % of control | dose: 10.0 mg/kg/injection, schedule: Q04DX003 (ip), vehicle: Klucel (hydroxypropylcellulose) (HPC) 122 % of control | dose: 20.0 mg/kg/injection, schedule: Q04DX003 (ip), vehicle: Klucel (hydroxypropylcellulose) (HPC) 120 % of control | dose: 40.0 mg/kg/injection, schedule: Q04DX003 (ip), vehicle: Klucel (hydroxypropylcellulose) (HPC) 115 % of control

O=C(/C=C/c1ccc([N+](=O)[O-])s1)c1cccc([N+](=O)[O-])c1
inactive: [5] 91 % of control | [6] 100 % of control | [7] 100 % of control

CCCCCCCCCCCCCCCCCc1cc(=O)n(-c2ccc(NC(=O)CCC(=O)OC)cc2)n1C
inactive: dose: 12.5 mg/kg/injection, schedule: Q04DX003 (ip), vehicle: Klucel (hydroxypropylcellulose) (HPC) 93 % of control | dose: 50.0 mg/kg/injection, schedule: Q04DX003 (ip), vehicle: Klucel (hydroxypropylcellulose) (HPC) 86 % of control

O=C(OC1CCCC2CCCC21)c1ccc([N+](=O)[O-])cc1 (stereo unspecified)
inactive: dose: 100.0 mg/kg/injection, schedule: Q01DX001 (ip), vehicle: carboxymethylcellulose (CMC) 93 % of control | dose: 200.0 mg/kg/injection, schedule: Q01DX001 (ip), vehicle: carboxymethylcellulose (CMC) 95 % of control | dose: 400.0 mg/kg/injection, schedule: Q01DX001 (ip), vehicle: carboxymethylcellulose (CMC) 98 % of control

Source: PubChem BioAssay AID248 (DTP/NCI, 2004)
